Assay [1] has as its target T1, PYL2 receptor-HAB1 complex (Arabidopsis thaliana, UniProt O80992).
T1 construct: made in house; host or cells: E. coli BL21 (DE3)
T1 sequence (O80992 14-188): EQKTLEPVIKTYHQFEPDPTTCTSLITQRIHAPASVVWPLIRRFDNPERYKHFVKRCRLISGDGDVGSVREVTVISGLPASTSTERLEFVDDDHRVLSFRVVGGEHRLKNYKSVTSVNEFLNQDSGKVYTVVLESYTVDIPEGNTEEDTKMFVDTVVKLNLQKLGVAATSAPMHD
T1 sequence (Q9CAJ0 172-511 partner limits assumed): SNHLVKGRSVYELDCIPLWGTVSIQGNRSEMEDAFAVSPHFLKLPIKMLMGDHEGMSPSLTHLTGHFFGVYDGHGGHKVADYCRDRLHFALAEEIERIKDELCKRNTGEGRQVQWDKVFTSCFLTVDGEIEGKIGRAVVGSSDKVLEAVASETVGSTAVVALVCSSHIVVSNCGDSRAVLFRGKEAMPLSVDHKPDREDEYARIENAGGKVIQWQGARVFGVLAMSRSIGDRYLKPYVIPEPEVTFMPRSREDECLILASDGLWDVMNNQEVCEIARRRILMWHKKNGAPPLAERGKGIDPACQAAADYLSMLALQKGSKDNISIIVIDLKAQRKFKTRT
Kind of assay: HAB1 phosphatase activity assay (SnRK2.6 phosphorylated polypeptide as substrate). The assay is classed as biochemical. The note with it: FIG. 1a-1g; 100 nM HAB1, 500 nM PYL2. On the procedure:
50 mM imidazole, pH 7.2, 5 mM MgCl2, 0.1% β-mercaptoethanol, 0.5 μg·ml^−1 BSA, 100 nM HAB1 protein with a Biotin tag sequence, 500 nM PYL2 receptor protein with 6×His-SUMO dual tag sequence and the corresponding concentration of (+)-ABA/0224/0304/0706/0708/0713/0715/1028c/0428/1022B/NC0F4 were contained in the reaction system. The reaction system was incubated at room temperature for 30 minutes, followed by a further reaction for 30 minutes after adding an 11-amino acid phosphorylated polypeptide as a substrate. The phosphorylated polypeptide is amino acid 170-180 of SnRK2.6 protein kinase, wherein phosphorylated serine at position 175 (with a sequence of HSQPKpSTVGTP, purchased from Kingsley Company) was a known HAB1 dephosphorylation target site. After 30 minutes, chromogenic reagent (purchased from BioVision) was added and the absorbance at 650 nm was read on a microplate reader (Molecular Devices).

In assay [2] the test system is Arabidopsis thaliana Col-0 ecotype. Kind of assay: Soil drought experiment, Arabidopsis. The assay is classed as in vivo. Conditions: for growth after drought: 5 μM spray, two weeks after the drought, FIG. 12; for survival/growth after drought: 5 μM sprayed once every week, twice in total, four weeks of drought, FIG. 7. On the procedure:
Seeds of Arabidopsis Col-0 ecotype were sterilized with NaClO and then sown on ½ MS solid medium at 4° C. for 3 days of vernalization. After 6 days of growing, the well-grown seedlings having uniform size were selected and transferred into 8×7×6 cm^3 pots. Each pot was filled with the same weight of soil and same number of plants (six plants) was transferred to reduce experimental error. All the pots were subjected to a short-day culture at 22° C. After two weeks, watering was stopped for drought treatment. A solution containing 0.05% Tween-20 and 5 μM 0224/0706/0715/0428 or 0.05% Tween-20 and 0.05% DMSO (control) was sprayed onto the leaf surface once per week with a spray amount of 2 ml solution/pot. The position of the flowerpot was changed every day during the process of drought to reduce the error caused by environmental factors. During the whole drought period, the solution was sprayed twice in total and photos were recorded after four weeks.
Arabidopsis thaliana Col-0 ecotype that had been growing in the soil for two weeks was stopped watering, the leaf was sprayed with a solution containing 5 μM compound 0224/0706/0715 or 0.05% DMSO (control) once every week during the drought, with a spray amount of 2 ml solution/pot, twice in total and a 0.05% (v/v) surfactant Tween-20 was added to the solution to enhance the penetrating effect of the spray agent on the leaf epidermis. […] The same method was performed for drought treatment and (+)-ABA or 0428-treated Arabidopsis was photographed two weeks after the drought.

Entries after “also recorded” stand apart in the source; their conditions may differ.

Turning to `CCCN1C(=O)OCc2cc(NS(=O)(=O)Cc3c(F)c(F)c(C)c(F)c3F)ccc21` [Compound 0428], the “inhibition of HAB1 protein phosphatase activity by promoting binding between PYL2 receptor and HAB1” value (shortened to “inhibition”) in assay [1] was “inhibiting the activity of protein phosphatase HAB1; also recorded: inhibiting the dephosphorylation effect of HAB1 on SnRK2.6 phosphorylated polypeptide”. In addition, the growth after drought result in assay [2] was “exhibits a better growth condition than that in the control group and that sprayed with ABA; also recorded: significantly better than that of plants in DMSO-sprayed control group and plants sprayed with 5 μM (+)-ABA”.
In the case of `CC1=CC(=O)CC(C)(C)[C@@]1(O)/C=C/C(C)=C\C(=O)O` [ABA, Abscisic Acid, reference compound], the growth after drought entry in assay [2] is listed as “had no difference from that of plants in the DMSO-sprayed control group”.
As to `Cc1c(F)c(F)c(CS(=O)(=O)Nc2ccc3c(c2)C(C)OC(=O)N3CCCF)c(F)c1F` (stereo not shown) [Compound 0715], the “inhibition” value in assay [1] was “inhibiting the activity of protein phosphatase HAB1; also recorded: inhibiting the dephosphorylation effect of HAB1 on SnRK2.6 phosphorylated polypeptide”. For the same molecule, the survival/growth after drought entry in assay [2] is “still grows normally; also recorded: still survived”.
The like results for `CCN1C(=O)OC(C)c2cc(NS(=O)(=O)Cc3c(F)c(F)c(C)c(F)c3F)ccc21` (stereo not shown) [Compound 0706] were, in that order, “inhibiting the activity of protein phosphatase HAB1; also recorded: inhibiting the dephosphorylation effect of HAB1 on SnRK2.6 phosphorylated polypeptide” and “still grows normally; also recorded: still survived”.
The like results for `CCCN1C(=O)OC(C)c2cc(NS(=O)(=O)Cc3c(F)c(F)c(C)c(F)c3F)ccc21` (stereo not shown) [Compound 0224] were, in that order, “inhibiting the activity of protein phosphatase HAB1; also recorded: inhibiting the dephosphorylation effect of HAB1 on SnRK2.6 phosphorylated polypeptide” and “still grows normally; also recorded: still survived”.
For the molecule `CCCN1C(=O)OC(C)(C)c2cc(NS(=O)(=O)Cc3c(F)c(F)c(C)c(F)c3F)ccc21` [Compound 0304], the “inhibition” value in assay [1] is given as “inhibiting the activity of protein phosphatase HAB1; also recorded: inhibiting the dephosphorylation effect of HAB1 on SnRK2.6 phosphorylated polypeptide”.

Values taken from patent US11076597B2, “High stress resistant plant growth regulator and preparation method and use thereof” (SHANGHAI INSTITUTES FOR BIOLOGICAL SCIENCES, CHINESE …, priority 2015, dated 2021).
